This note sets out measurements from paper PMC9738107, “Targeting of the ELR+CXCL/CXCR1/2 Pathway Is a Relevant Strategy for the Treatment of Paediatric Medulloblastomas” (Cells, 2022).

Holding throughout (format): cell-based, human
Experiment [1] relates to ONS-76 cells. The experiment in a line: Clonogenic assay. The method, then:
(§1) Figure 4 C29 reduces proliferation, migration, and invasion of naïve MB cells. (A) Proliferation of Daoy, ONS-76, HD-MB03, and D341Med wild-type cells after treatment with 1 μM C29 or the control (DMSO), n = 3. (B) Clonogenic assay on Daoy (n = 4), ONS-76 (n = 3) and HD -MB03 (n = 5) cells after treatment with control (DMSO) or C29 (1 μM or 2.5 μM). Scale = 500 μm. (C) Cell migration through the Boyden chamber of Daoy and ONS-76 cells specifically attracted by 200 ng/mL CXCL8. Results are expressed as percentage of control (DMSO) (n = 3). Scale = 1000 μm. (D) Spheroid invasion using 3D culture cell assays on Daoy (n = 4) and ONS-76 cells (n = 3) treated with control (DMSO) or C29 at a concentration of 1 μM on day 0, 1, and 2. Results are expressed as percentage of day 0, n = 4. Scale = 500 μm. Statistics were performed using Student t-test for 2 comparisons only or ANOVA test for multiple comparisons. * p < 0.05, ** p < 0.01, *** p < 0.001. […]
(§2) each month by using PlasmoTest Kit (#10L07‐MM, InvivoGen, Toulouse, France). Daoy and ONS‐76 belong to the Shh genetic subgroup, D341‐Med and HD‐MB03 to group 3. […]
(§3) 150 Daoy/DR1/DR2/ ONS ‐ 76 and 300 HD ‐ MB03/HR1/HR2 cells were seeded in trip‐ licate in 6‐well plates in the presence or absence of treatment (1 or 2∙5μM […] or DMSO as control). On day 9 (Daoy/ONS‐76) and day 11 (HD ‐MB03), cells were fixed in ice‐cold absolute ethanol (Sigma) for 20 min, washed with PBS and then stained with Giemsa 50% for 30 min. The number of clones was quantified using ImageJ software. We only considered clones containing more than 50 cells. […]
Violet. […]
(§4) 5000 cells were plated in 48 multi‐well plates coated with agarose 0∙8%. After two days, spheroids were mixed with 100μl of matrigel mix (200μl of matrigel (Corning Mat‐ rigel Matrix, Fontenay‐sous‐Bois, France), 100 μl collagen I (8 mg/ml, Corning), 80 μl HEPES 1M and 320μl respective medium) in 12 multi‐well plates. […]

Another experiment has as its system HD-MB03 cells. The experiment in a line: Clonogenic assay. To be noted: HD-MB03, 1 µM. The procedure: as §1, §2, §3
Violet. […]
as §4

In experiment [2] the test system is Daoy cells. The experiment in a line: Clonogenic assay. To be noted: 1 µM. The method, then:
as §1, §2, §3
Violet. […]
as §4

In experiment [3] the test system is ERK phosphorylation in HD-MB03 cells. The experiment in a line: Immunoblotting of p-ERK/p-AKT. To be noted: HD-MB03, 1 or 2.5 µM, 2 h. The procedure:
(§5) Figure 5 C29 inhibits signalling pathway that stimulates in cell proliferation and survival. (A–C). Daoy (A), HD-MB03 (B), and ONS-76 (C) cells were treated with C29 (1 or 2.5 μM) for 2 h (A–C) or 24 h (C), n = 3. The expression of p- ERK and p-AKT, relative to ERK and AKT, (respectively) was used to describe the relative activation of the pathways. ARD1 and HSP90 were used as loading controls. Statistics were performed using Student t-test for two comparisons only or ANOVA test for multiple comparisons. * p < 0.05, ** p < 0.01. […]
(§6) Protein extraction and immunoblotting
(§7) Cells were cultured to sub confluency and lysed in 60 mM Tris‐Cl pH 6∙8, 2% SDS, 10% glycerol, 5% β‐mercapto‐ethanol, 0∙01% bromophenol blue).
(§8) Lysates were sonicated for 25 seconds, and protein amount was determined by the Pierce™ BCA Protein Assay Kit assay (Thermo Fisher). Sample proteins were reduced by heating at 95 °C for 5 min. 30 μg of proteins were separated on 10% SDS‐polyacrylamide gels and transferred on PVDF membranes in Tris‐Glycine buffer (25 mM Tris, 192 mM glycine, pH 8∙3) + 20% ethanol (v:v). Membranes were blocked with 3% BSA, at room tem‐ perature for 1 h, then immunoblotted overnight with primary antibodies diluted in 3% BSA, at 4 °C. The following primary antibodies were used: AKT (CST, #9272S), phospho‐ […]
(§9) ARD1 (homemade polyclonal rabbit antibody). Membranes were incubated with HRP‐ conjugated secondary antibodies anti‐rabbit IgG 1/5000e (Promega), at room temperature, for 1h30. After washing, the Advansta WesternBright Quantum HRP substrate (Diagom‐ ics, Blagnac, France) was used as detection reagent.

The test system of experiment [4] is ERK and AKT phosphorylation in ONS-76 cells. Kind of experiment: Immunoblotting of p-ERK/p-AKT. To be noted: ONS-76, 1 or 2.5 µM, 2 h or 24 h. The procedure:
as §5, §6, §7, §8, §9

The test system of experiment [5] is ERK phosphorylation in Daoy cells. Kind of experiment: Immunoblotting of p-ERK/p-AKT. To be noted: 1 or 2.5 µM, 2 h. The method, then: as §5, §6, §7, §8, §9
In general terms: A western blot detects proteins with antibodies after separation by electrophoresis.

The test system of experiment [6] is ONS-76 cells. The experiment in a line: CXCL8-induced migration in Boyden chamber. To be noted: ONS-76, 1 µM, 200 ng/mL CXCL8. The procedure: as §1, §2
(§10) (1, 2∙5, 5μM) for 48 hours. […]
(§11) Data were presented with the percentage of cell death after subtracting the percentage of untreated and unlabelled dead cells.
(§12) Migration in Boyden chambers
(§13) The cells were deprived of serum overnight. […] Cells were counted using ImageJ software (NIH). […]

The subject of experiment [7] is Daoy cells. The experiment in a line: CXCL8-induced migration in Boyden chamber. To be noted: 1 µM, 200 ng/mL CXCL8. The procedure: as §1, §2, §10, §11, §12, §13

In the case of `O=C(Nc1cccc(Cl)c1)Nc1nc2ccc([N+](=O)[O-])cc2s1` [C29, 1-(3-chlorophenyl)-3-(6-nitrobenzo[d]thiazol-2-yl) urea], the Clone formation result is “some clones were maintained” with ONS-76 cells [1] (ONS-76, 1 µM); “disappeared completely” in the experiment with ONS-76 cells [1] (ONS-76, 2.5 µM); “inhibited clone formation” in the experiment with HD-MB03 cells; “inhibited clone formation” with Daoy cells [2]. Further, the ERK phosphorylation entry is on record as “inhibited ERK phosphorylation” in experiment [3], “inhibited” in experiment [4] and “inhibited ERK phosphorylation” in experiment [5]. Moreover, in experiment [4], the AKT phosphorylation result is recorded as “inhibited”. Further, the CXCL8-induced migration result with ONS-76 cells [6] and in the experiment on Daoy cells [7] was “blocked CXCL8-induced migration” throughout.
